Measurements: ChEMBL document CHEMBL1145334, “Structural determinants of Torpedo californica acetylcholinesterase inhibition by the novel and orally active carbamate based anti-alzheimer drug ganstigmine (CHF-2819)” (J Med Chem, 2006)
Where a name gives a salt, the structure may show the parent alone.

What was measured:
Acetylcholinesterase = Acetylcholinesterase (Torpedo californica, UniProt P04058); assay: Inhibition of Torpedo californica AChE; set-up: species or system Tetronarce californica
Acetylcholinesterase, sequence (P04058 whole entry): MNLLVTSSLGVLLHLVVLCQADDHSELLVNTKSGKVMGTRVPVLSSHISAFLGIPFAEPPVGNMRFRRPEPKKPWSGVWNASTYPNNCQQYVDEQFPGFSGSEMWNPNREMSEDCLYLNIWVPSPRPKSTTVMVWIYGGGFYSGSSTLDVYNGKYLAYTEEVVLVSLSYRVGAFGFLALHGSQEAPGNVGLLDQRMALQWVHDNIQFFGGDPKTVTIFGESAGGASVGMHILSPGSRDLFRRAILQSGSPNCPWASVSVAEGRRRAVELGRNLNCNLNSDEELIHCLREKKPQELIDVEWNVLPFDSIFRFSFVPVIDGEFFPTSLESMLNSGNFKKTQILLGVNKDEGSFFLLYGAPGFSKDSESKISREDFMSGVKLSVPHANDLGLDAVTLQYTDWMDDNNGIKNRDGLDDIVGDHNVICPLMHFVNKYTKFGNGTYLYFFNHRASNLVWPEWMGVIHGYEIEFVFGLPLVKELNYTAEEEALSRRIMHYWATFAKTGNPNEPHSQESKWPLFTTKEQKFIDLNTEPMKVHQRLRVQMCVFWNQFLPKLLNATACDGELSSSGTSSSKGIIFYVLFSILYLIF

[1] = target: T1, Acetylcholinesterase (Mus musculus) (UniProt P21836); conditions: CD1, Brain, 1.5 mg/kg
T1 sequence (whole entry): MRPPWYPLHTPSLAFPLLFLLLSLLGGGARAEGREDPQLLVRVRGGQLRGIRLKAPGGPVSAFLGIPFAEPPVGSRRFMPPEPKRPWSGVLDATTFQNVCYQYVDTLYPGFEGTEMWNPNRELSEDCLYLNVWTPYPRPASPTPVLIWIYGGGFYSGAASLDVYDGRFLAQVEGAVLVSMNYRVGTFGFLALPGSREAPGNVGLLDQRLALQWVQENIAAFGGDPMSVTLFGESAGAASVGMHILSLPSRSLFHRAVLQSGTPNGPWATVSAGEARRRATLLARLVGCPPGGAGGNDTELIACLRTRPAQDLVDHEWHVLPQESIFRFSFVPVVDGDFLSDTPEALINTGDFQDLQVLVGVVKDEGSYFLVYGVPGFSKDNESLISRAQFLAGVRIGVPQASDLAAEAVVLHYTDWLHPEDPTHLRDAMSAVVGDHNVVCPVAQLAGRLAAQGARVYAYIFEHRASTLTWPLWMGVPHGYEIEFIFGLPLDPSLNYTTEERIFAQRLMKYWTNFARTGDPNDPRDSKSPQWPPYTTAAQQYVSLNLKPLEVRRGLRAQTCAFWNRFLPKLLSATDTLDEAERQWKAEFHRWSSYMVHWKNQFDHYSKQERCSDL
Description: Inhibition of AChE in CD1 mouse brain at 1.5 mg/kg, po after 4 hrs

Cc1ccc(NC(=O)Oc2ccc3c(c2)[C@]2(C)CC[N+](C)([O-])[C@@H]2N3C)cc1 (stereo partly drawn)
IC50 (Acetylcholinesterase): 7.61 µM

CCc1ccccc1NC(=O)Oc1ccc2c(c1)[C@]1(C)CC[N+](C)([O-])[C@@H]1N2C (stereo partly drawn)
IC50 (Acetylcholinesterase): 5.12 µM

Cc1cccc(C)c1NC(=O)Oc1ccc2c(c1)[C@]1(C)CC[N+](C)([O-])[C@@H]1N2C (stereo partly drawn)
IC50 (Acetylcholinesterase): 186 µM

CNC(=O)Oc1ccc2c(c1)[C@]1(C)CC[N+](C)([O-])[C@@H]1N2C (stereo partly drawn) [GENESERINE]
IC50 (Acetylcholinesterase): 1.74 µM

CCCc1ccccc1NC(=O)Oc1ccc2c(c1)[C@]1(C)CC[N+](C)([O-])[C@@H]1N2C (stereo partly drawn)
IC50 (Acetylcholinesterase): 8.44 µM

Cc1cc(C)cc(NC(=O)Oc2ccc3c(c2)[C@]2(C)CC[N+](C)([O-])[C@@H]2N3C)c1 (stereo partly drawn)
IC50 (Acetylcholinesterase): 8.58 µM

CN1c2ccc(OC(=O)Nc3ccccc3)cc2[C@]2(C)CC[N+](C)([O-])[C@H]12 (stereo partly drawn)
IC50 (Acetylcholinesterase): 4.74 µM

CC(C)c1ccccc1NC(=O)Oc1ccc2c(c1)[C@]1(C)CC[N+](C)([O-])[C@@H]1N2C (stereo partly drawn)
IC50 (Acetylcholinesterase): 8.38 µM

CCc1cccc(NC(=O)Oc2ccc3c(c2)[C@]2(C)CC[N+](C)([O-])[C@@H]2N3C)c1 (stereo partly drawn)
IC50 (Acetylcholinesterase): 9.8 µM

Cc1ccccc1NC(=O)Oc1ccc2c(c1)[C@]1(C)CC[N+](C)([O-])[C@@H]1N2C (stereo partly drawn)
IC50 (Acetylcholinesterase): 4.04 µM

Cc1cccc(NC(=O)Oc2ccc3c(c2)[C@]2(C)CC[N+](C)([O-])[C@@H]2N3C)c1 (stereo partly drawn)
IC50 (Acetylcholinesterase): 5.13 µM

CCN(C)C(=O)Oc1cccc([C@H](C)N(C)C)c1 [RIVASTIGMINE TARTRATE]
IC50 (Acetylcholinesterase): 187 µM | inhibition [1]: 73%
